Among the data in patent US10227323B2, “Glucosylceramide synthase inhibitors for the treatment of diseases” (BIOMARIN PHARMACEUTICAL INC., priority 2013, dated 2019) are IC50 values, retold here.

Structures are written as SMILES. Some results are limits rather than exact numbers.

As a reminder, the IC50 is the concentration that inhibits the measured activity by half.

The assay concerns the target T1, GCS (Canis lupus familiaris, UniProt A0A8I3MXG6).
T1 sequence (A0A8I3MXG6 1-394): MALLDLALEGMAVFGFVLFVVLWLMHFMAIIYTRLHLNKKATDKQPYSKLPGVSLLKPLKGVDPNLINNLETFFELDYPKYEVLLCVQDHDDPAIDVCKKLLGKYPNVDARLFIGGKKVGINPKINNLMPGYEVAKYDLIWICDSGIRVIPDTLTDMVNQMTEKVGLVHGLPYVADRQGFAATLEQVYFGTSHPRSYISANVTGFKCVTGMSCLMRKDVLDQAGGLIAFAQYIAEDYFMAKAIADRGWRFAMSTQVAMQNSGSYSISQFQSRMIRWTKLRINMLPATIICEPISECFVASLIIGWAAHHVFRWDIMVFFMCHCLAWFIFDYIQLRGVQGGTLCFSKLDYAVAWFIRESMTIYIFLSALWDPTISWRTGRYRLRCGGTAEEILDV
The assay can be described thus: Assay 1: GCS Enzymatic Assay (MDCK cell lysate, C6-NBD-Ceramide, LC/MS). Particulars: Table 2; data without asterisk; read-out: IC50 (nM) generated from Assay 1. The format is biochemical, canine. The essentials: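 LC/MS/MS measurement of glucosylceramide and NBD-ceramide after a 1 h, 37 °C reaction with 100 μM UDP-glucose and 10 μM C6-NBD-ceramide gave IC50s or percent inhibition.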
As for `CC(C)n1ccc2cc(-c3ccc(C(=O)C(=O)N[C@H](CN4CCCC4)[C@H](O)c4ccc(OC5CC5)c(Cl)c4)cc3)ccc21` [Example 266, N-((1R,2R)-1-(3-chloro-4-cyclopropoxyphenyl)-1-hydroxy-3-(pyrrolidin-1-yl)propan-2-yl)-2-(4-(1-isopropyl-1H-indo1-5-yl)phenyl)-2-oxoacetamide], the IC50 was below 50 nM.

For `O=C(N[C@H](CN1CCCC1)[C@H](O)c1ccc2c(c1)OCCO2)C(=O)c1ccc(-c2ccc(Cl)cc2)cc1` [Example 267, 2-(4′-chloro-[1,1′-biphenyl]-4-yl)-N-((1R,2R)-1-(2,3-dihydrobenzo[b][1,4]dioxin-6-yl)-1-hydroxy-3-(pyrrolidin-1-yl)propan-2-yl)-2-oxoacetamide], the half-maximal inhibitory concentration (IC50) is below 50 nM.

Regarding `O=C(N[C@H](CN1CCCC1)[C@H](O)c1ccc2c(c1F)OCCO2)C(=O)c1ccc(-c2ccc(F)cc2)cc1` [Example 268, N-((1R,2R)-1-(5-fluoro-2,3-dihydrobenzo[b][1,4]dioxin-6-yl)-1-hydroxy-3-(pyrrolidin-1-yl)propan-2-yl)-2-(4′-fluoro-[1,1′-biphenyl]-4-yl)-2-oxoacetamide], the IC50 is below 50 nM.

Take `CC(C)n1ccc2cc(-c3ccc(C(=O)C(=O)N[C@H](CN4CCCC4)[C@H](O)c4cc(F)c5c(c4)OCCO5)cc3)ccc21` [Example 269, N-((1R,2R)-1-(8-fluoro-2,3-dihydrobenzo[b][1,4]dioxin-6-yl)-1-hydroxy-3-(pyrrolidin-1-yl)propan-2-yl)-2-(4-(1-isopropyl-1H-indol-5-yl)phenyl)-2-oxoacetamide]: the concentration for half-maximal inhibition (IC50) was below 50 nM.

Take `O=C(N[C@H](CN1CCCC1)[C@H](O)c1ccc(OC2CC2)c(Cl)c1)C(=O)c1ccc(-c2ccc(Cl)cc2)cc1` [Example 270, N-((1R,2R)-1-(3-chloro-4-cyclopropoxyphenyl)-1-hydroxy-3-(pyrrolidin-1-yl)propan-2-yl)-2-(4′-chloro-[1,1′-biphenyl]-4-yl)-2-oxoacetamide]: the IC50 was below 50 nM.

`CC(C)n1cnc2cc(-c3ccc(C(=O)C(=O)N[C@H](CN4CCCC4)[C@H](O)c4ccc(OC5CC5)c(Cl)c4)cc3)ccc21` [Example 271, N-((1R,2R)-1-(3-chloro-4-cyclopropoxyphenyl)-1-hydroxy-3-(pyrrolidin-1-yl)propan-2-yl)-2-(4-(1-isopropyl-1H-benzo[d]imidazol-5-yl)phenyl)-2-oxoacetamide]: the half-maximal inhibitory concentration (IC50) is below 50 nM.

Regarding `O=C(N[C@H](CN1CCCC1)[C@H](O)c1cc(F)c2c(c1)OCCO2)C(=O)c1ccc(-c2ccc(Cl)cc2)cc1` [Example 272, 2-(4′-chloro-[1,1′-biphenyl]-4-yl)-N-((1R,2R)-1-(8-fluoro-2,3-dihydrobenzo[b][1,4]dioxin-6-yl)-1-hydroxy-3-(pyrrolidin-1-yl)propan-2-yl)-2-oxoacetamide], the IC50 was below 50 nM.

For the compound `O=C(N[C@H](CN1CCCC1)[C@H](O)c1cc(F)c2c(c1)OCCO2)C(=O)c1ccc(N2CCCC2)cc1` [Example 273, N-((1R,2R)-1-(8-fluoro-2,3-dihydrobenzo[b][1,4]dioxin-6-yl)-1-hydroxy-3-(pyrrolidin-1-yl)propan-2-yl)-2-oxo-2-(4-(pyrrolidin-1-yl)phenyl)acetamide], the IC50 is below 50 nM.

On to `O=C(N[C@H](CN1CCCC1)[C@H](O)c1ccc(OC2CC2)c(Cl)c1)C(=O)c1ccc(-c2ccc(C(F)(F)F)cc2)cc1` [Example 274, N-((1R,2R)-1-(3-chloro-4-cyclopropoxyphenyl)-1-hydroxy-3-(pyrrolidin-1-yl)propan-2-yl)-2-oxo-2-(4′-(trifluoromethyl)-[1,1′-biphenyl]-4-yl)acetamide], for which the concentration for half-maximal inhibition (IC50) is below 50 nM.

With `O=C(N[C@H](CN1CCCC1)[C@H](O)c1cc(F)c2c(c1)OCCO2)C(=O)c1ccc(-c2ccc3c(cnn3C3CC3)c2)cc1` [Example 275, 2-(4-(1-cyclopropyl-1H-indazol-5-yl)phenyl)-N-((1R,2R)-1-(8-fluoro-2,3-dihydrobenzo[b][1,4]dioxin-6-yl)-1-hydroxy-3-(pyrrolidin-1-yl)propan-2-yl)-2-oxoacetamide], the IC50 is below 50 nM.

For the compound `O=C(N[C@H](CN1CCCC1)[C@H](O)c1cc(Cl)c2c(c1)OCCO2)C(=O)c1ccc(-c2ccc3c(cnn3C3CC3)c2)cc1` [Example 276, N-((1R,2R)-1-(8-chloro-2,3-dihydrobenzo[b][1,4]dioxin-6-yl)-1-hydroxy-3-(pyrrolidin-1-yl)propan-2-yl)-2-(4-(1-cyclopropyl-1H-indazol-5-yl)phenyl)-2-oxoacetamide], the IC50 was below 50 nM.

As for `O=C(N[C@H](CN1CCCC1)[C@H](O)c1ccc(OC2CC2)c(Cl)c1)C(=O)c1ccc(-c2ccc3c(cnn3C3CC3)c2)cc1` [Example 277, N-((1R,2R)-1-(3-chloro-4-cyclopropoxyphenyl)-1-hydroxy-3-(pyrrolidin-1-yl)propan-2-yl)-2-(4-(1-cyclopropyl-1H-indazol-5-yl)phenyl)-2-oxoacetamide], the IC50 is below 50 nM.

For `O=C(N[C@H](CN1CCC1)[C@H](O)c1cc(F)c2c(c1)OCCO2)C(=O)c1ccc(-c2ccc3c(cnn3C3CC3)c2)cc1` [Example 278, N-((1R,2R)-3-(azetidin-1-yl)-1-(8-fluoro-2,3-dihydrobenzo[b][1,4]dioxin-6-yl)-1-hydroxypropan-2-yl)-2-(4-(1-cyclopropyl-1H-indazol-5-yl)phenyl)-2-oxoacetamide], the half-maximal inhibitory concentration (IC50) was below 50 nM.

Regarding `Cn1ncc2cc(-c3ccc(C(=O)C(=O)N[C@H](CN4CCC4)[C@H](O)c4ccc(OC5CC5)c(Cl)c4)cc3)ccc21` [Example 279, N-((1R,2R)-3-(azetidin-1-yl)-1-(3-chloro-4-cyclopropoxyphenyl)-1-hydroxypropan-2-yl)-2-(4-(1-methyl-1H-indazol-5-yl)phenyl)-2-oxoacetamide], the IC50 is below 50 nM.

As for `O=C(N[C@H](CN1CCCC1)[C@H](O)c1cc(F)c2c(c1)OCCO2)C(=O)c1ccc(-c2ccc3cnoc3c2)cc1` [Example 280, 2-(4-(benzo[d]isoxazol-6-yl)phenyl)-N-((1R,2R)-1-(8-fluoro-2,3-dihydrobenzo[b][1,4]dioxin-6-yl)-1-hydroxy-3-(pyrrolidin-1-yl)propan-2-yl)-2-oxoacetamide], the IC50 was below 50 nM.

As for `O=C(N[C@H](CN1CCCC1)[C@H](O)c1ccc(OC2CC2)c(Cl)c1)C(=O)c1ccc(-c2ccc3cnn(C4CC4)c3c2)cc1` [Example 281, N-((1R,2R)-1-(3-chloro-4-cyclopropoxyphenyl)-1-hydroxy-3-(pyrrolidin-1-yl)propan-2-yl)-2-(4-(1-cyclopropyl-1H-indazol-6-yl)phenyl)-2-oxoacetamide], the concentration for half-maximal inhibition (IC50) is below 50 nM.

In the case of `O=C(N[C@H](CN1CCCC1)[C@H](O)c1cc(F)c2c(c1)OCCO2)C(=O)c1ccc(-c2ccc3cnn(C4CC4)c3c2)cc1` [Example 282, 2-(4-(1-cyclopropyl-1H-indazol-6-yl)phenyl)-N-((1R,2R)-1-(8-fluoro-2,3-dihydrobenzo[b][1,4]dioxin-6-yl)-1-hydroxy-3-(pyrrolidin-1-yl)propan-2-yl)-2-oxoacetamide], the IC50 is below 50 nM.

On to `O=C(N[C@H](CN1CCC1)[C@H](O)c1cc(F)c2c(c1)OCCO2)C(=O)c1ccc(-c2ccc3cnn(C4CC4)c3c2)cc1` [Example 283, N-((1R,2R)-3-(azetidin-1-yl)-1-(8-fluoro-2,3-dihydrobenzo[b][1,4]dioxin-6-yl)-1-hydroxypropan-2-yl)-2-(4-(1-cyclopropyl-1H-indazol-6-yl)phenyl)-2-oxoacetamide], for which the IC50 was below 50 nM.

Take `O=C(N[C@H](CN1CCCC1)[C@H](O)c1ccc(OC2CC2)c(Cl)c1)C(=O)c1ccc(-c2ccc3cn(C4CC4)nc3c2)cc1` [Example 284, N-((1R,2R)-1-(3-chloro-4-cyclopropoxyphenyl)-1-hydroxy-3-(pyrrolidin-1-yl)propan-2-yl)-2-(4-(2-cyclopropyl-2H-indazol-6-yl)phenyl)-2-oxoacetamide]: the IC50 is below 50 nM.

Consider `O=C(N[C@H](CN1CCC1)[C@H](O)c1cc(Cl)c2c(c1)OCCO2)C(=O)c1ccc(-c2ccc3c(cnn3C3CC3)c2)cc1` [Example 285, N-((1R,2R)-3-(azetidin-1-yl)-1-(8-chloro-2,3-dihydrobenzo[b][1,4]dioxin-6-yl)-1-hydroxypropan-2-yl)-2-(4-(1-cyclopropyl-1H-indazol-5-yl)phenyl)-2-oxoacetamide], for which the IC50 was below 50 nM.

Regarding `O=C(N[C@H](CN1CCCC1)[C@H](O)c1cc2c(c(C(F)(F)F)c1)OCCO2)C(=O)c1ccc(-c2ccc(F)cc2)cc1` [Example 286, 2-(4′-fluoro-[1,1′-biphenyl]-4-yl)-N-((1R,2R)-1-hydroxy-3-(pyrrolidin-1-yl)-1-(8-(trifluoromethyl)-2,3-dihydrobenzo[b][1,4]dioxin-6-yl)propan-2-yl)-2-oxoacetamide], the IC50 lay in the range of 50 to 5000 nM.

`O=C(N[C@H](CN1CCCC1)[C@H](O)c1ccc(OC2CC2)c(Cl)c1)C(=O)c1ccc(-c2ccc(F)cc2)nc1` [Example 287, N-((1R,2R)-1-(3-chloro-4-cyclopropoxyphenyl)-1-hydroxy-3-(pyrrolidin-1-yl)propan-2-yl)-2-(6-(4-fluorophenyl)pyridin-3-yl)-2-oxoacetamide]: the IC50 was below 50 nM.

For the compound `O=C(N[C@H](CN1CCCC1)[C@H](O)c1ccc(OC2CC2)c(Cl)c1)C(=O)c1ccc2c(cnn2Cc2ccc(F)cc2)c1` [Example 288, N-((1R,2R)-1-(3-chloro-4-cyclopropoxyphenyl)-1-hydroxy-3-(pyrrolidin-1-yl)propan-2-yl)-2-(1-(4-fluorobenzyl)-1H-indazol-5-yl)-2-oxoacetamide], the IC50 was below 50 nM.
